Measurements taken from patent EP1285918A1, “C7 Ester substituted taxanes as antitumor agents” (Florida State University Research Foundation, Inc., priority 2001, dated 2003).
Read-outs that look alike come from different tables or passages of the source.

How the values were obtained:
[1] = system: MX-1 Human Breast Carcinoma Xenograft; settings: i.v. qd x 1 (Taxol 36 mg/kg split dose, 1393 72.6 mg/kg)
Experimental: Antitumor compounds were formulated for an i.v. dosing regime (single i.v. bolus on qd x 1 schedule) prepared in the following vehicle: 5% ethanol, 5% Cremophor and 90% isotonic saline. […] Other compounds were similarly formulated. […] The dosing volume was 0.3 ml per 20 g mouse.
All vehicle control animals in the split dosing regimes were dosed twice intravenously with half the total volume being given separated by one hour. The study was terminated on Day 60.
The mean days of survival is the number of days after which a neoplasm reached a size of 2.0 g and the animal was euthanized. A complete response is obtained if the tumor is not palpable at the end of the study. A partial response is obtained if the tumor shrinks to a size smaller than its size on Day 1 of the study. […]

[2] = system: DU 145 Human Prostate Carcinoma Xenografts; settings: DU145; for Mean Score: tumor score 1 to 10, group mean
Summary of the method: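 Male NCr-nude mice bearing subcutaneous DU145 fragments (five per group) received one i.v. dose at each agent's estimated MTD on Day 1, with vehicle controls; the study ran to Day 91. Survival was counted until tumour reached 1.5 g. Complete or partial response was scored by palpability or shrinkage below Day-1 size.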

[3] = system: A375 Human Melanoma Xenografts; settings: A375; for Mean Score: tumor score 1 to 10, group mean
Summary of the method: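 Female NCr-nude mice carrying subcutaneous flank A375 implants (1 mm^3), six per group (Taxotere seven). Single i.v. dose on Day 1 at each agent's estimated MTD (Taxotere 70 mg/kg), vehicle i.v. for controls; study ended Day 60. Survival days counted to 2.0 g tumor; complete response = non-palpable tumor at study end, partial = smaller than on Day 1.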

[4] = system: Panc-1 Human Pancreatic Carcinoma Xenografts
Summary of the method: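 Female NCr-nude mice with subcutaneous flank Panc-1 fragments, six per group, dosed i.v. once on Day 1 at estimated MTD (Taxotere 70 mg/kg); vehicle controls. Survival taken as days until tumor reached 1.5 g; complete response = nonpalpable tumor at Day 63, partial = smaller than Day 1 size.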

[5] = system: VM46 Human Colon Carcinoma Xenografts
Summary of the method: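 Female NCr-nude mice bearing subcutaneous VM46 colon carcinoma fragments, six per group, given compounds i.v. once on Day 1 at estimated MTD; vehicle i.v. for controls. Endpoints to Day 64: mean days of survival (tumor reaching 1.5 g), toxic deaths, survivors, complete/partial responses and stable disease.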

[6] = Taxol i.p. 18 mg/kg qd x 5, 5 mice, Day 91
[7] = i.v. qd x 1 (mg/kg: Taxol 24, 1351 107.6, 1393 72.6, 1401 107.6, 1418 107.6, 1424 195.1), 5 mice/group, Day 91
[8] = Taxol i.p. 18 mg/kg qd x 5, 6 mice, Day 60
[9] = i.v. qd x 1 (mg/kg: Taxol 24, 1351 107.6, 1393 72.6, 1401 107.6, 1418 107.6, 1424 195.1, Taxotere 70), Day 60
[10] = 15 mg/kg i.p. qd x 5, 6 mice/group, study end Day 63
[11] = 24 mg/kg i.v. qd x 1 as two split doses, 6 mice/group, study end Day 63
[12] = 15 mg/kg i.p. qd x 5, 6 mice/group, study end Day 64
[13] = 24 mg/kg i.v. qd x 1, 6 mice/group, study end Day 64
[14] = VM46, Taxol 24 mg/kg i.v. qd x 1, 6 mice, Day 64

## CC(=O)O[C@H]1C(=O)[C@@]2(C)[C@H]([C@H](OC(=O)c3ccccc3)[C@]3(O)C[C@H](OC(=O)[C@H](O)[C@@H](NC(=O)c4ccccc4)c4ccccc4)C(C)=C1C3(C)C)[C@]1(OC(C)=O)CO[C@@H]1C[C@@H]2O [Taxol, paclitaxel, reference compound]
[1]; 6 mice/group, Day 60
  Complete Response: 0
  Partial Response: 0
  Survivors: 1
[1]; tumor score 1 to 10, group mean
  Mean Score: 1.2 ± 0.8
[2]; Taxol 24 mg/kg i.v. qd x 1
  increase in survival compared to Group 1 controls: 9%
[2]; Taxol i.p. 18 mg/kg qd x 5
  toxicity: highly toxic
  weight loss: more than 20%
  Mean Score: 0 ± 0
[2]; [6]
  Complete Response: 0
  Partial Response: 0
  Stable Disease: 0
  Survivors: 0
[2]; i.v. qd x 1 (mg/kg: Taxol 24, 1351 107.6, 1393 72.6, 1401 107.6, 1418 107.6, 1424 195.1), 5 mice/group, 1.5 g cut-off, Day 91
  MDS (n): 37.4 ± 8.9 (3) days
[2]; [7]
  Complete Response: 0
  Partial Response: 0
  Stable Disease: 1
  Survivors: 1
[2]; i.v. qd x 1 (mg/kg: Taxol 24, 1351 107.6, 1393 72.6, 1401 107.6, 1418 107.6, 1424 195.1)
  Mean Score: 2 ± 1
[3]; Taxol i.p. 18 mg/kg qd x 5
  toxicity: highly toxic
  Mean Score: 0±0
[3]; [8]
  Complete Response: 0
  Partial Response: 0
  Stable Disease: 0
  Survivors: 0
[3]; i.v. qd x 1 (mg/kg: Taxol 24, 1351 107.6, 1393 72.6, 1401 107.6, 1418 107.6, 1424 195.1, Taxotere 70), 2.0 g cut-off, Day 60
  MDS (n): 18.1 ± 0.6 (4) days
[3]; [9]
  Complete Response: 0
  Partial Response: 0
  Stable Disease: 0
  Survivors: 0
  Toxic Deaths: 2
[3]; i.v. qd x 1 (mg/kg: Taxol 24, 1351 107.6, 1393 72.6, 1401 107.6, 1418 107.6, 1424 195.1, Taxotere 70)
  Mean Score: 0.8 ± 0.3
[3]; i.v. qd x 1 (mg/kg: Taxol 24, 1393 72.6, 1418 107.6, Taxotere 70)
  survival extension compared to Group 1 controls: 26%
[4]; [10]
  Complete Response: 0
  Mean Score: 1.2 ± 1.2
  Partial Response: 1
  Stable Disease: 0
  Survivors: 1
  Toxic Deaths: 4
[4]; [11]
  Complete Response: 0
  Mean Score: 2.2 ± 0.8
  Partial Response: 0
  Stable Disease: 1
  Survivors: 1
  Toxic Deaths: 1
[4]; 24 mg/kg i.v. qd x 1 as two split doses, 6 mice/group, study end Day 63, days until tumor reached 1.5 g
  MDS (n): 34.7 ± 3.4 days
[4]; Panc-1, Taxol i.p. 15 mg/kg qd x 5, 6 mice
  Toxic Deaths: four
[4]; Panc-1, i.v. qd x 1 (mg/kg: Taxol 24, 1351 75.32, 1393 72.6, 1401 107.6, 1418 107.6, 1424 195.1), 6 mice/group
  Toxic Deaths: One
[4]; Panc-1, i.v. qd x 1 (mg/kg: Taxol 24, 1351 75.32, 1393 72.6, 1401 107.6, 1418 107.6, 1424 195.1), 6 mice/group, 1.5 g cut-off, Day 63
  MDS: 34.7 days
[4]; Panc-1, i.v. qd x 1 (mg/kg: Taxol 24, 1393 72.6, 1418 107.6), 6 mice/group, Day 63
  Stable Disease: one
[5]; [12]
  Complete Response: 0
  Mean Score: 1.8 ± 1.3
  Partial Response: 1
  Stable Disease: 0
  Survivors: 1
  Toxic Deaths: 3
[5]; 15 mg/kg i.p. qd x 5, 6 mice/group, study end Day 64, days until tumor reached 1.5 g
  MDS (n): 36.1 ± 12.2 (2) days
[5]; [13]
  Complete Response: 0
  Mean Score: 3.8 ± 1.4
  Partial Response: 1
  Stable Disease: 1
  Survivors: 2
  Toxic Deaths: 0
[5]; [14]
  Partial Response: one
  Stable Disease: one
[5]; VM46, Taxol i.p. 15 mg/kg qd x 5
  toxicity: excessively toxic
[5]; VM46, Taxol i.p. 15 mg/kg qd x 5, 6 mice
  mortalities: three
